Drawing on patent publication US8003658B2, “Quinazoline derivatives for inhibiting cancer cell growth and method for the preparation thereof” (Hanmi Holdings Co., Ltd., priority 2004, dated 2011), this text covers IC50 for 25 compounds.

Like-named read-outs stand apart in the source and are kept apart here.

The test system of one test is A431 (ATCC: CRL-1555). Kind of test: Test of cancer cell growth inhibition (SRB), A431. Conditions: read-out: IC50 A431.
Another test relates to SK-Br3 (ATCC: HTB-30). Kind of test: Test of cancer cell growth inhibition (SRB), SK-Br3. The conditions noted are these: read-out: IC50 SK-Br-3.
The test system of the next test is SW-620 (ATCC: CCL-227). The test is described as follows: Test of cancer cell growth inhibition (SRB), SW-620. Conditions: read-out: IC50 SW-620.
The mark [1] stands for this setting: EGFR overexpressed A431, 72 hours, SRB.
Where [2] appears, read: Erb-B2 overexpressed SK-Br3, 72 hours, SRB.

Usually IC50 stands for the concentration that inhibits the measured activity by half. Turning to `CC=CC=CC(=O)NCCC(=O)Nc1ccc2ncnc(Nc3ccc(OCc4cccc(F)c4)c(Cl)c3)c2c1` [Example 24, hexa-2,4-dienonylic acid (2-{4-[3-chloro-4-(3-fluoro-benzyloxy)-phenylamino]-quinazolin-6-ylcarbamoyl}-ethyl)-amide], the half-inhibitory concentration (IC50) in the test on A431 (ATCC: CRL-1555) (setting [1]) was 232 nM; in the test on SK-Br3 (ATCC: HTB-30) (setting [2]), 105 nM; in the test with SW-620 (ATCC: CCL-227) (SW-620 not having overexpressed EGFR and Erb-B2, 72 hours, SRB), greater than 10000 nM.
Regarding `C=CC(=O)NCCC(=O)Nc1ccc2ncnc(Nc3ccc(F)c(Cl)c3)c2c1` [Example 54, N-{2-[4-(3-chloro-4-fluoro-phenylamino)-quinazolin-6-ylcarbamoyl]-ethyl}-acrylamide], the IC50 in the test on A431 (ATCC: CRL-1555) (Homo sapiens, A-431, 72 h) is 321 nM; in the test with SK-Br3 (ATCC: HTB-30) (Homo sapiens, SK-BR-3, 72 h) it was 46 nM; in the test on SW-620 (ATCC: CCL-227) (Homo sapiens, SW-620, 72 h), greater than 10000 nM.
Turning to `COCC(=O)NCC(OC(C)=O)C(=O)Nc1ccc2ncnc(Nc3ccc(OCc4cccc(F)c4)c(Cl)c3)c2c1` (centres unmarked) [Example 39-2, acetic acid 1-{4-[3-chloro-4-(3-fluoro-benzyloxy)-phenylamino]-quinazolin-6-ylcarbamoyl}-2-(2-methoxy-acetylamino)-ethylester], the half-maximal inhibitory concentration (IC50) was 482 nM in the test on A431 (ATCC: CRL-1555) (Homo sapiens, A-431, 72 h); 45 nM in the test with SK-Br3 (ATCC: HTB-30) (Homo sapiens, SK-BR-3, 72 h); greater than 10000 nM in the test with SW-620 (ATCC: CCL-227) (Homo sapiens, SW-620, 72 h).
On to `C=CC(=O)N[C@@H](C)C(=O)Nc1cc2c(Nc3ccc(OCc4cccc(F)c4)c(Cl)c3)ncnc2cc1OCCOC` [Example 214, (1S)—N-(1-{4-[3-chloro-4-(3-fluoro-benzyloxy)-phenylamino]-7-(2-methoxyethoxy)-quinazolin-6-ylcarbamoyl}-ethyl)-acrylamide], for which the half-maximal inhibitory concentration (IC50) in the test on A431 (ATCC: CRL-1555) (Homo sapiens, A-431, 72 h) was 22 nM; in the test on SK-Br3 (ATCC: HTB-30) (Homo sapiens, SK-BR-3, 72 h), 6 nM.
“(2S)-2-acryloylamino-N-{4-[3-chloro-4-(3-fluoro-benzyloxy)-phenylamino]-7-methoxy-quinazolin-6-yl}-4-methylsulfanyl-butyramide [Example 221]”: the 50% inhibitory concentration (IC50) in the test on A431 (ATCC: CRL-1555) (setting [1]) was found to be 28 nM; in the test with SK-Br3 (ATCC: HTB-30) (setting [2]) it was 23 nM.
Turning to `C=CC(=O)N1CCC[C@H]1C(=O)Nc1ccc2ncnc(Nc3ccc(OCc4ccncc4)c(Cl)c3)c2c1` [Example 153, (2S)-1-acryloyl-pyrrolidine-2-carboxylic acid {4-[3-chloro-4-(pyridin-4-ylmethoxy)-phenylamino]-quinazolin-6-yl}-amide], the IC50 in the test with A431 (ATCC: CRL-1555) (Homo sapiens, A-431, 72 h) worked out at 394 nM; in the test on SK-Br3 (ATCC: HTB-30) (Homo sapiens, SK-BR-3, 72 h), 29 nM.
The corresponding values for `C=CC(=O)N1CCC[C@H]1C(=O)Nc1cc2c(Nc3ccc(OCc4ccccn4)c(Cl)c3)ncnc2cc1Cl` [Example 176, (2S)-1-acryloyl-pyrrolidine-2-carboxylic acid {7-chloro-4-[3-chloro-4-(pyridin-2-ylmethoxy)-phenylamino]-quinazolin-6-yl}-amide] are 517 nM and 34 nM.
Turning to `C=CC(=O)N1CC(C(=O)Nc2ccc3ncnc(Nc4ccc(OCc5ccccn5)c(Cl)c4)c3c2)C1` [Example 163, 1-acryloyl-azetidine-3-carboxylic acid {4-[3-chloro-4-(pyridin-2-ylmethoxy)-phenylamino]-quinazolin-6-yl}-amide], the IC50 in the test with A431 (ATCC: CRL-1555) (setting [1]) was found to be 1400 nM; in the test on SK-Br3 (ATCC: HTB-30) (Homo sapiens, SK-BR-3, 72 h), 60 nM.
With `C=CC=CCn1ncc2cc(Nc3ncnc4cc(OC)c(NC(=O)[C@@H]5CCCN5C(=O)C=C)cc34)ccc21` [Example 193, (2S)-1-acryloyl-pyrrolidine-2-carboxylic acid [7-methoxy-4-(1-penta-2,4-dienyl-1H-indazol-5-ylamino)-quinazolin-6-yl]-amide], the IC50 stood at 75 nM in the test with A431 (ATCC: CRL-1555) (Homo sapiens, A-431, 72 h) and 22 nM with SK-Br3 (ATCC: HTB-30) (Homo sapiens, SK-BR-3, 72 h).
On the same counts, the results for `C=CC(=O)N1C[C@H](S(=O)(=O)CC)C[C@H]1C(=O)Nc1ccc2ncnc(Nc3ccc(OCc4ccccn4)c(Cl)c3)c2c1` [Example 160, (2S,4R)-1-acryloyl-4-ethanesulfonyl-pyrrolidine-2-carboxylic acid {4-[3-chloro-4-(pyridin-2-ylmethoxy)-phenylamino]-quinazolin-6-yl}-amide] are 6930 nM and 437 nM.
On the same counts, the results for `C=CC(=O)N1CCC[C@H]1C(=O)Nc1ccc2ncnc(Nc3ccc(F)c(Cl)c3)c2c1` [Example 159, (2S)-1-acryloyl-pyrrolidine-2-carboxylic acid [4-(3-chloro-4-fluoro-phenylamino)-quinazolin-6-yl]-amide] are 462 nM and 223 nM.
On the same counts, the results for `C=CC(=O)N1CCC(C(=O)Nc2cc3c(Nc4ccc(OCc5ccccn5)c(Cl)c4)ncnc3cc2OC)C1` (centres unmarked) [Example 198, 1-acryloyl-pyrrolidine-3-carboxylic acid {4-[3-chloro-4-(pyridin-2-ylmethoxy)-phenylamino]-7-methoxy-quinazolin-6-yl}-amide] are 47 nM and 24 nM.
Regarding `O=C(CCNC(=O)OCc1ccccc1)Nc1ccc2ncnc(Nc3ccc(OCc4cccc(F)c4)c(Cl)c3)c2c1` [Example 128, (2-{4-[3-chloro-4-(3-fluoro-benzyloxy)-phenylamino]-quinazolin-6-ylcarbamoyl}-ethyl)-carbamic acid benzylester], the 50% inhibitory concentration (IC50) with A431 (ATCC: CRL-1555) (Homo sapiens, A-431, 72 h) came out at 489 nM; with SK-Br3 (ATCC: HTB-30) (Homo sapiens, SK-BR-3, 72 h), 585 nM.
With `O=C(CCNC(=O)C1CC1)Nc1ccc2ncnc(Nc3ccc(OCc4cccc(F)c4)c(Cl)c3)c2c1` [Example 37, cyclopropylcarboxylic acid (2-{4-[3-chloro-4-(3-fluoro-benzyloxy)-phenylamino]-quinazolin-6-ylcarbamoyl}-ethyl)-amide], the concentration for half-maximal inhibition (IC50) in the test with A431 (ATCC: CRL-1555) (Homo sapiens, A-431, 72 h) came to 137 nM; with SK-Br3 (ATCC: HTB-30) (Homo sapiens, SK-BR-3, 72 h) it was 160 nM.
For `Cc1cc(C(=O)NCCC(=O)Nc2ccc3ncnc(Nc4ccc(OCc5cccc(F)c5)c(Cl)c4)c3c2)on1` [Example 32, 3-methyl-isoxazol-5-carboxylic acid (2-{4-[3-chloro-4-(3-fluoro-benzyloxy)-phenylamino]-quinazolin-6-ylcarbamoyl}-ethyl)-amide], the IC50 with A431 (ATCC: CRL-1555) (Homo sapiens, A-431, 72 h) was 312 nM; with SK-Br3 (ATCC: HTB-30) (Homo sapiens, SK-BR-3, 72 h) it was 163 nM.
Regarding `C=CC(=O)N1CCC[C@H]1C(=O)Nc1cc2c(Nc3ccc(OCc4cccnc4)c(Cl)c3)ncnc2cc1OC` [Example 204, (2S)-1-acryloyl-pyrrolidine-2-carboxylic acid {4-[3-chloro-4-(pyridin-3-ylmethoxy)-phenylamino]-7-methoxy-quinazolin-6-yl}-amide], the IC50 with A431 (ATCC: CRL-1555) (Homo sapiens, A-431, 72 h) was determined as 85 nM; in the test on SK-Br3 (ATCC: HTB-30) (Homo sapiens, SK-BR-3, 72 h), 30 nM.
On the same counts, the results for `C=CC(=O)N1C[C@H](SCC)C[C@H]1C(=O)Nc1ccc2ncnc(Nc3ccc(OCc4ccccn4)c(Cl)c3)c2c1` [Example 150, (2S,4R)-1-acryloyl-4-ethylsulfanyl-pyrrolidine-2-carboxylic acid {4-[3-chloro-4-(pyridin-2-ylmethoxy)-phenylamino]-quinazolin-6-yl}-amide] are 36 nM and 6 nM.
The corresponding values for `COCCOCC(=O)NCCC(=O)Nc1ccc2ncnc(Nc3ccc(OCc4cccc(F)c4)c(Cl)c3)c2c1` [Example 135, N-{4-[3-chloro-4-(3-fluoro-benzyloxy)-phenylamino]-quinazolin-6-yl}-3-[2-(2-methoxy-ethoxy)-acetylamino]-propionamide] are 123 nM and 92 nM.
On to `C=CC(=O)N1CCC[C@H]1C(=O)Nc1cc2c(Nc3ccc(OCc4ccccn4)c(C)c3)ncnc2cc1OC` [Example 168, (2S)-1-acryloyl-pyrrolidine-2-carboxylic acid {7-methoxy-4-[3-methyl-4-(pyridin-2-ylmethoxy)-phenylamino]-quinazolin-6-yl}-amide], for which the half-maximal inhibitory concentration (IC50) came out at 68 nM in the test on A431 (ATCC: CRL-1555) (Homo sapiens, A-431, 72 h) and 6 nM with SK-Br3 (ATCC: HTB-30) (Homo sapiens, SK-BR-3, 72 h).
With `C=CC(=O)N1CCC1C(=O)Nc1cc2c(Nc3ccc(OCc4ccccn4)c(Cl)c3)ncnc2cc1F` (centres unmarked) [Example 195, 1-acryloyl-azetidine-2-carboxylic acid {4-[3-chloro-4-(pyridin-2-ylmethoxy)-phenylamino]-7-fluoro-quinazolin-6-yl}-amide], the IC50 turned out to be 119 nM in the test on A431 (ATCC: CRL-1555) (Homo sapiens, A-431, 72 h) and 44 nM with SK-Br3 (ATCC: HTB-30) (Homo sapiens, SK-BR-3, 72 h).
Consider `C=CC(=O)N1CCC[C@H](C(=O)Nc2cc3c(Nc4ccc(OCc5ccccn5)c(Cl)c4)ncnc3cc2OC)C1` [Example 201, (3S)-1-acryloyl-piperidine-3-carboxylic acid {4-[3-chloro-4-(pyridin-2-ylmethoxy)-phenylamino]-7-methoxy-quinazolin-6-yl}-amide], for which the half-inhibitory concentration (IC50) with A431 (ATCC: CRL-1555) (Homo sapiens, A-431, 72 h) was found to be 148 nM; in the test on SK-Br3 (ATCC: HTB-30) (Homo sapiens, SK-BR-3, 72 h), 25 nM.
On to `C=CC(=O)N1CSC[C@H]1C(=O)Nc1cc2c(Nc3ccc(OCc4ccccn4)c(Cl)c3)ncnc2cc1OC` [Example 180, (4R)-3-acryloyl-thiazolidin-4-carboxylic acid {4-[3-chloro-4-(pyridin-2-ylmethoxy)-phenylamino]-7-methoxy-quinazolin-6-yl}-amide], for which the IC50 with A431 (ATCC: CRL-1555) (Homo sapiens, A-431, 72 h) is 438 nM; in the test with SK-Br3 (ATCC: HTB-30) (Homo sapiens, SK-BR-3, 72 h), 63 nM.
Consider `CC(=O)OCC(=O)NCCC(=O)Nc1ccc2ncnc(Nc3ccc(OCc4cccc(F)c4)c(Cl)c3)c2c1` [Example 121, acetic acid (2-{4-[3-chloro-4-(3-fluoro-benzyloxy)-phenylamino]-quinazolin-6-ylcarbamoyl}-ethylcarbamoyl)-methylester], for which the concentration for half-maximal inhibition (IC50) with A431 (ATCC: CRL-1555) (Homo sapiens, A-431, 72 h) came to 616 nM; with SK-Br3 (ATCC: HTB-30) (Homo sapiens, SK-BR-3, 72 h), 69 nM.
On the same counts, the results for `C#Cc1cccc(Nc2ncnc3ccc(NC(=O)[C@@H]4CCCN4C(=O)C=C)cc23)c1` [Example 158, (2S)-1-acryloyl-pyrrolidine-2-carboxylic acid [4-(3-ethynyl-phenylamino)-quinazolin-6-yl]-amide] are 583 nM and 48 nM.
On the same counts, the results for `O=C(CCNC(=O)c1cn[nH]c1)Nc1ccc2ncnc(Nc3ccc(OCc4cccc(F)c4)c(Cl)c3)c2c1` [Example 34, 1H-pyrazol-4-carboxylic acid (2-{4-[3-chloro-4-(3-fluoro-benzyloxy)-phenylamino]-quinazolin-6-ylcarbamoyl}-ethyl)-amide] are 896 nM and 141 nM.
